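How tested: cells in 96-well plates exposed to compound for 48 hours at five concentrations. Here, GI50 denotes the concentration required for 50% inhibition of growth.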 Active and inactive are the calls of the source. Cut-off read from the data, not from the text of the source: active = GI50 up to about 1.1 µM and inactive = higher.
How the values were obtained:
Test in all cases: NCI-60 cell line screen, 48 h
SF-539 = tested on: SF-539
Hs-578T = tested on: Hs-578T
COLO 205 = tested on: COLO 205
SF-295 = tested on: SF-295
RPMI-8226 = tested on: RPMI-8226
U-251 = tested on: U-251
M14 = tested on: M14
ACHN = tested on: ACHN
786-0 = tested on: 786-0
MDA-MB-435 = tested on: MDA-MB-435
HT-29 = tested on: HT-29
MDA-MB-231 = tested on: MDA-MB-231
MOLT-4 = tested on: MOLT-4
HOP-62 = tested on: HOP-62
SNB-19 = tested on: SNB-19
SNB-75 = tested on: SNB-75
TK-10 = tested on: TK-10
A498 = tested on: A498
OVCAR-5 = tested on: OVCAR-5
SK-MEL-2 = tested on: SK-MEL-2

SMILES	GI50 (SF-539)	GI50 (Hs-578T)	GI50 (COLO 205)	GI50 (SF-295)	GI50 (RPMI-8226)	GI50 (U-251)	GI50 (M14)	GI50 (ACHN)	GI50 (786-0)	GI50 (MDA-MB-435)	GI50 (HT-29)	GI50 (MDA-MB-231)	GI50 (MOLT-4)	GI50 (HOP-62)	GI50 (SNB-19)	GI50 (SNB-75)	GI50 (TK-10)	GI50 (A498)	GI50 (OVCAR-5)	GI50 (SK-MEL-2)
COC(=O)[C@H](Cc1ccc(OC(C)(C)C)cc1)N[C@H](C)C(=O)N[C@@H](Cc1ccccc1)C(=O)OCc1ccccc1	> 100 µM (inactive)	> 100 µM (inactive)	96.6 µM (inactive)	> 100 µM (inactive)	37.8 µM (inactive)	> 100 µM (inactive)	52.4 µM (inactive)	93.1 µM (inactive)	54.3 µM (inactive)	82.8 µM (inactive)	47.2 µM (inactive)	> 100 µM (inactive)	20 µM (inactive)	> 100 µM (inactive)	> 100 µM (inactive)	57.1 µM (inactive)	> 100 µM (inactive)	> 100 µM (inactive)	> 100 µM (inactive)	
CSc1c(C(=O)Nc2ccc(C)cc2)c(N)n(N)c(=O)c1C#N	> 100 µM (inactive)	> 100 µM (inactive)	> 100 µM (inactive)		> 100 µM (inactive)	> 100 µM (inactive)	> 100 µM (inactive)		> 100 µM (inactive)	> 100 µM (inactive)	> 100 µM (inactive)	> 100 µM (inactive)	> 100 µM (inactive)		> 100 µM (inactive)	> 100 µM (inactive)	> 100 µM (inactive)	> 100 µM (inactive)	> 100 µM (inactive)	> 100 µM (inactive)
COC(NC(=O)Nc1ccc(C)cc1)(C(F)(F)F)C(F)(F)F	41.4 µM (inactive)	25 µM (inactive)	18.7 µM (inactive)	26.5 µM (inactive)	24.6 µM (inactive)	18.1 µM (inactive)	29.5 µM (inactive)	24 µM (inactive)	54.2 µM (inactive)	30.9 µM (inactive)	31 µM (inactive)	32.2 µM (inactive)	9.08 µM (inactive)	42.8 µM (inactive)	23.7 µM (inactive)	28.1 µM (inactive)	42.8 µM (inactive)	30.3 µM (inactive)	34.9 µM (inactive)	
CCCCNc1c(CN)cnc2cc(Cl)ccc12		17.6 µM (inactive)	7.48 µM (inactive)	14 µM (inactive)	16.4 µM (inactive)	16.4 µM (inactive)	20 µM (inactive)	22.6 µM (inactive)	16.7 µM (inactive)	15.6 µM (inactive)	16.9 µM (inactive)	15.3 µM (inactive)	17 µM (inactive)	14.1 µM (inactive)	22.9 µM (inactive)	19.8 µM (inactive)	15 µM (inactive)	15.4 µM (inactive)	16.6 µM (inactive)	17.8 µM (inactive)
C/C=C\C(CC(=O)NCCC1CN(C(=O)OCc2ccccc2)c2ccccc21)CC(=O)OC (stereo unspecified)		> 100 µM (inactive)	50.5 µM (inactive)	> 100 µM (inactive)	79.4 µM (inactive)	> 100 µM (inactive)	> 100 µM (inactive)	> 100 µM (inactive)	> 100 µM (inactive)	> 100 µM (inactive)	> 100 µM (inactive)	> 100 µM (inactive)	> 100 µM (inactive)	> 100 µM (inactive)	> 100 µM (inactive)	> 100 µM (inactive)	> 100 µM (inactive)	> 100 µM (inactive)	> 100 µM (inactive)	> 100 µM (inactive)
Cc1sc2nc3n(c(=O)c2c1C)N=C(c1ccc([N+](=O)[O-])cc1)CS3	> 100 µM (inactive)	97.5 µM (inactive)	> 100 µM (inactive)	> 100 µM (inactive)	> 100 µM (inactive)	> 100 µM (inactive)		> 100 µM (inactive)	> 100 µM (inactive)	> 100 µM (inactive)	> 100 µM (inactive)	> 100 µM (inactive)	> 100 µM (inactive)	61.9 µM (inactive)		83.8 µM (inactive)		> 100 µM (inactive)	> 100 µM (inactive)	
CC#CC#C/C=C1/O[C@]2(CCC(OC(C)=O)CO2)[C@@H]2O[C@H]12 (stereo partly specified)		40.3 µM (inactive)	15.1 µM (inactive)	35.4 µM (inactive)	27.2 µM (inactive)	17.9 µM (inactive)	18.4 µM (inactive)	24.9 µM (inactive)	18.2 µM (inactive)	22.1 µM (inactive)	28.9 µM (inactive)	23 µM (inactive)	17 µM (inactive)	37.2 µM (inactive)	27.7 µM (inactive)	80.5 µM (inactive)	39.5 µM (inactive)	22.2 µM (inactive)	30.5 µM (inactive)	16.8 µM (inactive)
N=C1C(O)C2(I)c3ccccc3N3C(=N)C(O)C4c5ccccc5N1C4C32 (stereo unspecified)		61.8 µM (inactive)	26.2 µM (inactive)	47.8 µM (inactive)	40.9 µM (inactive)	22.1 µM (inactive)	59 µM (inactive)	39.4 µM (inactive)	30.8 µM (inactive)	20.4 µM (inactive)	95.1 µM (inactive)	26.4 µM (inactive)	27.5 µM (inactive)	38.3 µM (inactive)	63.7 µM (inactive)	> 100 µM (inactive)	> 100 µM (inactive)	> 100 µM (inactive)	> 100 µM (inactive)	> 100 µM (inactive)
COC(=O)c1ccc(NCC2=CC(=O)C=CC2=O)cc1	10.9 µM (inactive)	21.4 µM (inactive)	2.69 µM (inactive)		2.59 µM (inactive)	13.6 µM (inactive)	4.06 µM (inactive)	14 µM (inactive)	2.46 µM (inactive)	11.3 µM (inactive)	17.9 µM (inactive)	14.2 µM (inactive)	3.05 µM (inactive)		14.8 µM (inactive)	16.3 µM (inactive)	10.8 µM (inactive)	14.5 µM (inactive)	16.7 µM (inactive)	15.3 µM (inactive)
Cc1cc(C)c(/N=N/c2c(O)c(S(=O)(=O)O)cc3cc(S(=O)(=O)O)ccc23)cc1C		> 100 µM (inactive)	> 100 µM (inactive)	> 100 µM (inactive)	> 100 µM (inactive)	> 100 µM (inactive)	> 100 µM (inactive)	> 100 µM (inactive)	48.9 µM (inactive)	> 100 µM (inactive)	> 100 µM (inactive)	> 100 µM (inactive)	> 100 µM (inactive)	> 100 µM (inactive)	> 100 µM (inactive)	> 100 µM (inactive)	> 100 µM (inactive)	> 100 µM (inactive)	> 100 µM (inactive)	> 100 µM (inactive)
CC1=C(O)C(O)=C(C2=C(O)C(O)=C(C)C(=O)C2=O)C(=O)C1=O	33 µM (inactive)	36.7 µM (inactive)	40.7 µM (inactive)	31.3 µM (inactive)	34.3 µM (inactive)	40.9 µM (inactive)	38.5 µM (inactive)	28.1 µM (inactive)	41.7 µM (inactive)	37.8 µM (inactive)	59.3 µM (inactive)	31.8 µM (inactive)	98.2 µM (inactive)	44 µM (inactive)	50.5 µM (inactive)	76.2 µM (inactive)		31 µM (inactive)	41.6 µM (inactive)	
Cc1cc(-c2[nH]c(C(=O)O)cc2I)on1		67.9 µM (inactive)	> 100 µM (inactive)	33.7 µM (inactive)	> 100 µM (inactive)	40.9 µM (inactive)	80 µM (inactive)	91.4 µM (inactive)	36.6 µM (inactive)	> 100 µM (inactive)	> 100 µM (inactive)	75.2 µM (inactive)	> 100 µM (inactive)	26.9 µM (inactive)	31 µM (inactive)	24.8 µM (inactive)	> 100 µM (inactive)	> 100 µM (inactive)	29.2 µM (inactive)	> 100 µM (inactive)
Cc1cccc2c(N)c3cccc(C(=O)NCCN(C)C)c3nc12		0.207 µM (active)	0.0315 µM (active)	< 0.0298 µM (active)	< 0.021 µM (active)	< 0.0302 µM (active)	0.143 µM (active)	< 0.0163 µM (active)	< 0.0199 µM (active)	0.12 µM (active)	< 0.0236 µM (active)	0.0538 µM (active)	< 0.01 µM (active)	< 0.0247 µM (active)		0.074 µM (active)	0.214 µM (active)	0.157 µM (active)	0.0935 µM (active)	0.231 µM (active)
N#C[C@H](c1nc2ccccc2[nH]1)c1nc2ccccc2nc1Cl	> 100 µM (inactive)	2.05 µM (inactive)	12.8 µM (inactive)	> 61.4 µM (inactive)	8.93 µM (inactive)	15.8 µM (inactive)	> 23.4 µM (inactive)	> 23.1 µM (inactive)	7.62 µM (inactive)	14.3 µM (inactive)	5.55 µM (inactive)	12.7 µM (inactive)	4.04 µM (inactive)		19.9 µM (inactive)	12.9 µM (inactive)	14 µM (inactive)	26.2 µM (inactive)	> 44.3 µM (inactive)	
C/C(=N\Nc1nc2ccccc2o1)c1cc(C)ncn1	0.107 µM (active)	0.231 µM (active)	< 0.01 µM (active)	0.0745 µM (active)	0.0306 µM (active)	0.128 µM (active)	< 0.0206 µM (active)	< 0.0189 µM (active)	< 0.0275 µM (active)	0.319 µM (active)	< 0.01 µM (active)	< 0.0203 µM (active)	< 0.01 µM (active)	0.11 µM (active)	0.405 µM (active)	0.151 µM (active)		> 100 µM (inactive)	0.618 µM (active)	1.38 µM (inactive)
